Measurements reported in patent publication US20100168102A9, “Amide Derivatives as Kinase Inhibitors” (Devgen NV, priority 2005, published 2010).

biological target: T1, PKC epsilon (Homo sapiens, UniProt Q02156); assay: Biochemical assay for PKC epsilon (fluorescence polarization, Protein Kinase C Assay Kit, Red); conditions: Table 2, compounds of Formula XIII; read-out: IC50 μM PKCε
T1 construct: purchased Invitrogen P2282
T1 sequence (Q02156 1-737): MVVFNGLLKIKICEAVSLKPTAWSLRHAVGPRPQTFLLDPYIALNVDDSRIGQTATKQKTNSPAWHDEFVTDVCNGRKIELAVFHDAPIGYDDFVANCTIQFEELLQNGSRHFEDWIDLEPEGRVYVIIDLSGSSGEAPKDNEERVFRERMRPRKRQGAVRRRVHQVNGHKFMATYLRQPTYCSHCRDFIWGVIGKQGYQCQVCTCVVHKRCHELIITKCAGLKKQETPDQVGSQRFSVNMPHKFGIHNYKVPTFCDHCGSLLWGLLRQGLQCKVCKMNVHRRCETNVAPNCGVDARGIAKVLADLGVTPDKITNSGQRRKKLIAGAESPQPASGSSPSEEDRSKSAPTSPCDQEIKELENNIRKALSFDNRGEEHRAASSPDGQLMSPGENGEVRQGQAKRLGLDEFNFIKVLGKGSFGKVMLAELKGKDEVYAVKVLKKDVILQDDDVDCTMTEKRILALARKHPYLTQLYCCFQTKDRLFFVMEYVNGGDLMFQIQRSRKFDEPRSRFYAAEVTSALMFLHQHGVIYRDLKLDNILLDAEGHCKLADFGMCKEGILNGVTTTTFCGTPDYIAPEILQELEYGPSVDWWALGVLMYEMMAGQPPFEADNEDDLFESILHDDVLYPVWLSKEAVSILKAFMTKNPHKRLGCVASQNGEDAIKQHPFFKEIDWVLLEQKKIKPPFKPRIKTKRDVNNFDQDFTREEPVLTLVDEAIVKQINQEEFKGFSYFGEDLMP
Description: The compounds were tested for inhibition of PKC epsilon.
The inhibition assays were performed with a fluorescence polarization (FP) assay using the commercially available Protein Kinase C Assay Kit, Red, from Invitrogen (Product ID. No. P2941), essentially in accordance with the protocol supplied by the manufacturer. […] The isozyme PKC epsilon was also obtained from Invitrogen (Product ID No. P2282).
Staurosporine was used as a positive control (2 μM).
To perform the assay, 2 μl of a solution of the compound to be tested in DMSO (at each concentration) was added to 6 μl of a solution of the enzyme in 10 mM HEPES, 5 mM dithiotreitol, 0.1% Triton X-100, pH 7.4. The final concentration of the enzymes was 10 ng/ml.
After incubating for 30 minutes at room temperature, 4 μl of a mixture of ATP and the protein substrate in 60 mM HEPES (pH7.4), 15 mM MgCl2, 0.3 mM CaCl2, 0.06% NP40 was added.
After incubating for 80 minutes at room temperature, 3 μl of a mix solution of 500 mM EDTA (stop solution) and the Rhodamine-based PKC Red Tracer (from the Protein Kinase C Assay Kit) in BGG/phosphate buffer (pH7.4) with 0.02% NaN3 and 0.1% Triton X-100 was added and 5 μl of a the Anti-Phosphoserine antibody (also from the Protein Kinase C Assay Kit) in BGG/phosphate buffer (pH7.4) with 0.02% NaN3.
The results were fitted to a curve using the XL-Fit algorithm and […] were calculated for each fitted curve, again using the XL-Fit algorithm.

Molecule	IC50 [µM]
4-(1-Amino-2-{[1-(4-chloro-phenyl)- cyclobutanecarbonyl]-amino}-ethyl)- N-pyridin-4-yl-benzamide [Compound 337]	0.05 to 0.5
4-(1-Amino-2-{[1-(4-fluoro-phenyl)- cyclobutanecarbonyl]-amino}-ethyl)- N-pyridin-4-yl-benzamide [Compound 338]	< 0.05
4-(1-Amino-2-{[1-(4-fluoro-phenyl)- cyclohexanecarbonyl]-amino}-ethyl)- N-pyridin-4-yl-benzamide [Compound 343]	< 0.05
7-Fluoro-indan-1-carboxylic acid {2- amino-2-[4-(pyridin-4-ylcarbamoyl)- phenyl]-ethyl}-amide [Compound 353]	0.05 to 0.5
CCC(CC)(C(=O)NCC(N)c1ccc(C(=O)Nc2ccncc2)cc1)c1ccccc1 (centres unmarked) [Compound 334, 4-[1-Amino-2-(2-ethyl-2-phenyl-butyrylamino)-ethyl]-N-pyridin-4-yl-benzamide]	< 0.05
NC(CNC(=O)C1(c2ccc(F)cc2)CCCC1)c1ccc(C(=O)Nc2ccncc2)cc1 (centres unmarked) [Compound 336, 4-(1-Amino-2-{[1-(4-fluoro-phenyl)-cyclopentanecarbonyl]-amino}-ethyl)-N-pyridin-4-yl-benzamide]	< 0.05
NC(CNC(=O)C1(c2cccc(F)c2)CCCC1)c1ccc(C(=O)Nc2ccncc2)cc1 (centres unmarked) [Compound 341, 4-(1-Amino-2-{[1-(3-fluoro-phenyl)-cyclopentanecarbonyl]-amino}-ethyl)-N-pyridin-4-yl-benzamide]	0.05 to 0.5
NC(CNC(=O)C1CCCc2ccccc21)c1ccc(C(=O)Nc2ccncc2)cc1 (centres unmarked) [Compound 350, 1,2,3,4-Tetrahydro-naphthalene-1-carboxylic acid {2-amino-2-[4-(pyridin-4-ylcarbamoyl)-phenyl]-ethyl}-amide]	0.05 to 0.5

The remaining lines, values ahead:

IC50 [µM]	Molecule
0.05 to 0.5	NC(CNC(=O)Cc1ccccc1)c1ccc(C(=O)Nc2ccncc2)cc1 (centres unmarked) [Compound 328, 4-(1-Amino-2-phenylacetylamino-ethyl)-N-pyridin-4-yl-benzamide]
0.05 to 0.5	NC(CNC(=O)Cc1ccc(Cl)c(Cl)c1)c1ccc(C(=O)Nc2ccncc2)cc1 (centres unmarked) [Compound 329, 4-{1-Amino-2-[2-(3,4-dichloro-phenyl)-acetylamino]-ethyl}-N-pyridin-4-yl-benzamide]
0.05 to 0.5	NC(CNC(=O)Cc1ccc(F)c(Cl)c1)c1ccc(C(=O)Nc2ccncc2)cc1 (centres unmarked) [Compound 330, 4-{1-Amino-2-[2-(3-chloro-4-fluoro-phenyl)-acetylamino]-ethyl}-N-pyridin-4-yl-benzamide]
0.5 to 5	NC(CNC(=O)Cc1cc(F)ccc1F)c1ccc(C(=O)Nc2ccncc2)cc1 (centres unmarked) [Compound 331, 4-{1-Amino-2-[2-(2,5-difluoro-phenyl)-acetylamino]-ethyl}-N-pyridin-4-yl-benzamide]
0.05 to 0.5	NC(CNC(=O)Cc1ccc(F)cc1Cl)c1ccc(C(=O)Nc2ccncc2)cc1 (centres unmarked) [Compound 332, 4-{1-Amino-2-[2-(2-chloro-4-fluoro-phenyl)-acetylamino]-ethyl}-N-pyridin-4-yl-benzamide]
0.05 to 0.5	NC(CNC(=O)Cc1ccc(Cl)cc1F)c1ccc(C(=O)Nc2ccncc2)cc1 (centres unmarked) [Compound 333, 4-{1-Amino-2-[2-(4-chloro-2-fluoro-phenyl)-acetylamino]-ethyl}-N-pyridin-4-yl-benzamide]
< 0.05	NC(CNC(=O)C1(c2ccc(F)cc2Cl)CCCC1)c1ccc(C(=O)Nc2ccncc2)cc1 (centres unmarked) [Compound 342, 4-(1-Amino-2-{[1-(2-chloro-4-fluoro-phenyl)-cyclopentanecarbonyl]-amino}-ethyl)-N-pyridin-4-yl-benzamide]

same assay, conditions: compounds of Formula XIV, Table 3; read-out: IC50 μM PKCε

Molecule	IC50 [µM]
4-[1-Amino-2-(5-fluoro- indan-1-ylcarbamoyl)-ethyl]- N-pyridin-4-yl-benzamide [Compound 361]	0.05 to 0.5
4-[1-Amino-2-(6-fluoro- indan-1-ylcarbamoyl)-ethyl]- N-pyridin-4-yl-benzamide [Compound 362]	0.05 to 0.5
